Experimental data as given in ChEMBL document CHEMBL1201862, “PubChem BioAssay data set” (2004).
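Cells were grown in 96-well plates and exposed to each compound for 48 hours at five concentrations; endpoints were interpolated linearly between bracketing concentrations, or set to the highest concentration if not reached. GI50: concentration for 50% inhibition of growth.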 Active and inactive are the calls of the source. Cut-off read from the data, not from the text of the source: active = GI50 up to about 1.1 µM and inactive = higher. Residues, ends and D or L forms follow the SMILES beside them. *: point of attachment. Fmoc = O=C(OCC1c2ccccc2-c2ccccc21)*; Boc = CC(C)(C)OC(=O)*

Key:
Experiment in all cases: inhibition of tumour cell growth, NCI panel, 48 h
SN12C = test system: SN12C
NCI-H460 = test system: NCI-H460
K562 = test system: K562
SK-MEL-28 = test system: SK-MEL-28
DU-145 = test system: DU-145
SK-OV-3 = test system: SK-OV-3
HT-29 = test system: HT-29
HCT-15 = test system: HCT-15
NCI-H226 = test system: NCI-H226
SNB-19 = test system: SNB-19
U-251 = test system: U-251
T47D = test system: T47D
MOLT-4 = test system: MOLT-4
HCT-116 = test system: HCT-116
Hs-578T = test system: Hs-578T
786-0 = test system: 786-0
M14 = test system: M14
RXF 393 = test system: RXF 393
BT-549 = test system: BT-549
MDA-MB-231 = test system: MDA-MB-231

Compound | GI50 (SN12C) | GI50 (NCI-H460) | GI50 (K562) | GI50 (SK-MEL-28) | GI50 (DU-145) | GI50 (SK-OV-3) | GI50 (HT-29) | GI50 (HCT-15) [µM] | GI50 (NCI-H226) | GI50 (SNB-19) | GI50 (U-251) | GI50 (T47D) | GI50 (MOLT-4) | GI50 (HCT-116) | GI50 (Hs-578T) | GI50 (786-0) | GI50 (M14) | GI50 (RXF 393) | GI50 (BT-549) | GI50 (MDA-MB-231)
CC1=NN(C(=O)CC(=O)Nc2ccc(Cl)cc2)C(=O)C1/N=N\c1ccc(S(=O)(=O)c2ccc(/N=N/C3C(=O)N(C(=O)CC(=O)Nc4ccc(Cl)cc4)N=C3C)cc2)cc1 (stereo not drawn) | > 100 µM (inactive) | > 100 µM (inactive) | 77.1 µM (inactive) | > 100 µM (inactive) | > 100 µM (inactive) | > 100 µM (inactive) | > 100 µM (inactive) | 60.8 | > 100 µM (inactive) | 61.5 µM (inactive) | 22.4 µM (inactive) | > 100 µM (inactive) | > 100 µM (inactive) | > 100 µM (inactive) | > 100 µM (inactive) | > 100 µM (inactive) | 65.2 µM (inactive) | 41.5 µM (inactive) | > 100 µM (inactive) | 51.9 µM (inactive)
O=C1c2ccccc2-c2nnc3c(c21)Cc1ccccc1C3 | > 10 µM (inactive) | > 10 µM (inactive) | > 10 µM (inactive) | > 10 µM (inactive) | > 10 µM (inactive) | > 10 µM (inactive) | > 10 µM (inactive) | > 10 | > 10 µM (inactive) | > 10 µM (inactive) | > 10 µM (inactive) | > 10 µM (inactive) | > 10 µM (inactive) | > 10 µM (inactive) | > 10 µM (inactive) | > 10 µM (inactive) | > 10 µM (inactive) | > 10 µM (inactive) | > 10 µM (inactive) | > 10 µM (inactive)
CC(NNC(=O)c1ccncc1)c1ccc(Cl)c(Cl)c1 (stereo not drawn) | > 100 µM (inactive) | > 100 µM (inactive) | 38.4 µM (inactive) | > 100 µM (inactive) | > 100 µM (inactive) | 19.6 µM (inactive) | > 100 µM (inactive) | > 100 | > 100 µM (inactive) | > 100 µM (inactive) | > 100 µM (inactive) | 66.4 µM (inactive) | 48.9 µM (inactive) | > 100 µM (inactive) | 86.9 µM (inactive) | > 100 µM (inactive) | 67.9 µM (inactive) | > 100 µM (inactive) | > 100 µM (inactive) | > 100 µM (inactive)
O=c1/c(=C/c2ccc(-c3ccc(Cl)cc3Cl)o2)sc2n1[C@@H](c1ccc3c(c1)OCO3)C=C(c1cc(F)c(Cl)cc1Cl)N=2 | 57.3 µM (inactive) | 37 µM (inactive) | 35.2 µM (inactive) | 91.8 µM (inactive) | 63.7 µM (inactive) | 21.5 µM (inactive) | 25.6 µM (inactive) | 34.1 | 20.7 µM (inactive) | 28.8 µM (inactive) | 29.4 µM (inactive) | 21.1 µM (inactive) | 28.2 µM (inactive) | 35.4 µM (inactive) | 14 µM (inactive) | 42.9 µM (inactive) | 28 µM (inactive) | 39.4 µM (inactive) | 37.8 µM (inactive) | 22.6 µM (inactive)
Cc1csc2nc(-c3cccc([N+](=O)[O-])c3)c(/C=N/N=C(N)N)n12 | 1.69 µM (inactive) | 3.2 µM (inactive) | 1.98 µM (inactive) | 1.71 µM (inactive) | 2.19 µM (inactive) | 1.82 µM (inactive) | 1.81 µM (inactive) | 1.71 | 1.64 µM (inactive) | 1.9 µM (inactive) | 1.67 µM (inactive) | 1.87 µM (inactive) |  | 1.7 µM (inactive) | 2.18 µM (inactive) | 1.57 µM (inactive) | 1.71 µM (inactive) | 1.7 µM (inactive) | 1.1 µM (active) | 1.55 µM (inactive)
CCN(CCN(CC)C(=O)Nc1ccccc1)C(=O)Nc1ccccc1 | > 100 µM (inactive) | > 100 µM (inactive) | > 100 µM (inactive) | > 100 µM (inactive) | > 100 µM (inactive) | > 100 µM (inactive) | > 100 µM (inactive) | > 100 | > 100 µM (inactive) | > 100 µM (inactive) | > 100 µM (inactive) | > 100 µM (inactive) | > 100 µM (inactive) | > 100 µM (inactive) | > 100 µM (inactive) | > 100 µM (inactive) | > 100 µM (inactive) | > 100 µM (inactive) | > 100 µM (inactive) | > 100 µM (inactive)
N/C(=N\Nc1ccc(S(N)(=O)=O)cc1)c1cnccn1 | > 100 µM (inactive) | > 100 µM (inactive) | > 100 µM (inactive) | > 100 µM (inactive) | > 100 µM (inactive) | > 100 µM (inactive) | > 100 µM (inactive) | > 100 | > 100 µM (inactive) | > 100 µM (inactive) | > 100 µM (inactive) | > 100 µM (inactive) | > 100 µM (inactive) | > 100 µM (inactive) | > 100 µM (inactive) | > 100 µM (inactive) | > 100 µM (inactive) | > 100 µM (inactive) | > 100 µM (inactive) | > 100 µM (inactive)
O=C(NNC(=S)Nc1ccc(Cl)cc1)c1cc(-c2ccccc2)nc2ccccc12 | 4.97 µM (inactive) | 6.22 µM (inactive) | 4.28 µM (inactive) | 3.31 µM (inactive) | 4.23 µM (inactive) | 7.82 µM (inactive) | 8.73 µM (inactive) | 3.43 | 11.5 µM (inactive) | 6.89 µM (inactive) | 3.51 µM (inactive) | 2.33 µM (inactive) | 4.24 µM (inactive) | 3.06 µM (inactive) | 11.7 µM (inactive) | 4.71 µM (inactive) | 4.97 µM (inactive) | 7.93 µM (inactive) | 4.6 µM (inactive) | 12.2 µM (inactive)
C[C@@H](NC(=O)[C@@H]1C[C@]1(C)CO)c1cccc2ccccc12 | > 100 µM (inactive) | > 100 µM (inactive) | > 100 µM (inactive) | > 100 µM (inactive) | > 100 µM (inactive) | > 100 µM (inactive) | > 100 µM (inactive) | > 100 | > 100 µM (inactive) | > 100 µM (inactive) | > 100 µM (inactive) | > 100 µM (inactive) | > 100 µM (inactive) | > 100 µM (inactive) | > 100 µM (inactive) | > 100 µM (inactive) | > 100 µM (inactive) | > 100 µM (inactive) | > 100 µM (inactive) | > 100 µM (inactive)
CN1c2ccccc2S(=O)(=O)n2c(COc3ccccc3)nnc21 | > 100 µM (inactive) | > 100 µM (inactive) | > 100 µM (inactive) | > 100 µM (inactive) | > 100 µM (inactive) | > 100 µM (inactive) | > 100 µM (inactive) | > 100 | > 100 µM (inactive) | > 100 µM (inactive) | > 100 µM (inactive) | > 100 µM (inactive) | > 100 µM (inactive) | > 100 µM (inactive) | > 100 µM (inactive) | 64.6 µM (inactive) | > 100 µM (inactive) | > 100 µM (inactive) | 64.4 µM (inactive) | > 100 µM (inactive)
Cc1cccc2nc(-c3ccccc3)cc(=O)n12 | 69.2 µM (inactive) | > 100 µM (inactive) | > 100 µM (inactive) | > 100 µM (inactive) | > 100 µM (inactive) | 82.8 µM (inactive) | > 100 µM (inactive) | 94 | 30.1 µM (inactive) | > 100 µM (inactive) | > 100 µM (inactive) | 14 µM (inactive) | 63.5 µM (inactive) | > 100 µM (inactive) | 12.5 µM (inactive) | > 100 µM (inactive) | > 100 µM (inactive) | 51.8 µM (inactive) | 85.5 µM (inactive) | > 100 µM (inactive)
CC(C)(C)OC(=O)NCCCCC(NC(=O)C(Cc1c[nH]c2ccccc12)NC(=O)OCC1c2ccccc2-c2ccccc21)C(=O)N1CCCC1C(=O)NCC(N)=O (stereo not drawn) (Fmoc-WK(Boc)PG-NH2; configuration not given here) | > 100 µM (inactive) | > 100 µM (inactive) | > 100 µM (inactive) | > 100 µM (inactive) | > 100 µM (inactive) | 1.59 µM (inactive) | > 100 µM (inactive) | > 100 | > 100 µM (inactive) | > 100 µM (inactive) | > 100 µM (inactive) | > 100 µM (inactive) | > 100 µM (inactive) | > 100 µM (inactive) | > 100 µM (inactive) | > 100 µM (inactive) | 60.5 µM (inactive) | > 100 µM (inactive) | > 100 µM (inactive) | 42.5 µM (inactive)
COC(=O)/C(=C(\C)NC(C)=O)c1c(C(=O)OC)[nH]c2ccccc12 | > 100 µM (inactive) | > 100 µM (inactive) | > 100 µM (inactive) | > 100 µM (inactive) | > 100 µM (inactive) | > 100 µM (inactive) | > 100 µM (inactive) | > 100 | > 100 µM (inactive) | > 100 µM (inactive) | > 100 µM (inactive) | > 100 µM (inactive) | > 100 µM (inactive) | > 100 µM (inactive) | > 100 µM (inactive) | > 100 µM (inactive) | > 100 µM (inactive) | > 100 µM (inactive) | > 100 µM (inactive) | > 100 µM (inactive)
CCOC(=O)/C=C/CCO[Si](C)(C)C(C)(C)C | > 100 µM (inactive) | > 100 µM (inactive) | > 100 µM (inactive) | > 100 µM (inactive) | > 100 µM (inactive) | > 100 µM (inactive) | > 100 µM (inactive) | > 100 | > 100 µM (inactive) | > 100 µM (inactive) | > 100 µM (inactive) | > 100 µM (inactive) | > 100 µM (inactive) | > 100 µM (inactive) | > 100 µM (inactive) | > 100 µM (inactive) |  | > 100 µM (inactive) | > 100 µM (inactive) | > 100 µM (inactive)
